molecular target: AOC3 (Homo sapiens (Human), UniProt Q16853); assay: MAO-Glo AOC3 assay; format: biochemical; settings: recombinant CHO cells overexpressing AOC3 enzyme
From the text: The MAO-Glo™ Assay (commercial available from PROMEGA, #V1402) provides a sensitive method for the measurement of monoamine oxidase (MAO) activity (Valley, M. P. et al., 2006, Anal. Biochem. 359: 238-246) from a variety of tissues, biofluids or recombinant expressed or purified enzymes. As substrate a derivate of the beetle luciferin ((4S)-4,5-dihydro-2-(6-hydroxybenzothiazolyl)-4-thiazole-carboxylic acid) is used, which is oxidized at a primary amine moiety. After a spontaneous elimination and a catalyzed esterase reaction, the turnover of the luciferine by the luciferase is recorded as a signal of AOC3 activity.
An aliquot of 3 μL of the compound dilution is added to a 384 well plate (Optiplate, PS, flat bottom, white, PERKIN ELMER, #6007290) with a final DMSO concentration of 6.6%. Recombinant CHO cells, overexpressing the human (1500 cells/well), mouse (1000 cells/well) or rat (500 cells/well) AOC3 enzyme are diluted in reaction buffer and added in a volume of 15 μL to the wells. After incubation for 20 minutes at 37° C., 2 μL of MAO substrate (dissolved in DMSO at 16 mM, adjusted to assay concentration in reaction buffer to a final assay concentration of 20 μM) is added and further incubated for 60 minutes at 37° C. The turnover of the substrate is determined by the addition of 20 μL of the detection-mix which was generated by the addition of reconstitution buffer with esterase (PROMEGA, #V1402) to the luciferine detection reagent (PROMEGA, #V1402). After an incubation period of 20 minutes, the luminescent signal is measured with Envision 2104 Multilabel Reader (PERKIN ELMER).

AOC3, sequence (Q16853 whole entry): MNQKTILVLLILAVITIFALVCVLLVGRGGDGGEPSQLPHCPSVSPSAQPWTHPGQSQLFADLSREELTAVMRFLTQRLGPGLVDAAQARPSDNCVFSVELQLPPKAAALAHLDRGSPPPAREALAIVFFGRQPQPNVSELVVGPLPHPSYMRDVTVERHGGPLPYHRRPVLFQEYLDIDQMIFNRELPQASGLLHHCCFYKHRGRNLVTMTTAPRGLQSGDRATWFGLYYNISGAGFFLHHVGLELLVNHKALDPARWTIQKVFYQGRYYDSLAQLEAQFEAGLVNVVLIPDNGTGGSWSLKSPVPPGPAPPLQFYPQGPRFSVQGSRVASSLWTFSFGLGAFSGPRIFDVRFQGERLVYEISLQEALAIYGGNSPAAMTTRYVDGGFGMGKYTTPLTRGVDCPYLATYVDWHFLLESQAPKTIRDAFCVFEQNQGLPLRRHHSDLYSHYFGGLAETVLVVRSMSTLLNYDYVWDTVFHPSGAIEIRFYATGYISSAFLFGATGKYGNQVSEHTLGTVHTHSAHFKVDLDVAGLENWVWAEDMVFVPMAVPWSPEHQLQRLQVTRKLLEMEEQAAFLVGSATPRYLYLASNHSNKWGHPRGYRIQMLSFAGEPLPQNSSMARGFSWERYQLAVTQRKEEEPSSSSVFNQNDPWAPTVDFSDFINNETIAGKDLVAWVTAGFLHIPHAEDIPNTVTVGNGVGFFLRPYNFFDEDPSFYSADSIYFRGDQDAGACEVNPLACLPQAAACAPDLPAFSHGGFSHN

Point of comparison: N#Cc1ccc(N2CCN(c3cc(COC(=O)NC(=N)N)c(F)cc3C#N)CC2)cc1 [Example 3.001], IC50 393 nM. Against it:
- Cc1cnc(C2=CCN(c3c(C#N)ccc(COC(=O)NC(=N)N)c3F)CC2)nc1 [Example 1.075] — 4.6-fold lower, 85 nM
- N#Cc1ccc(COC(=O)NC(=N)N)c(F)c1N1CCC(c2cccc(Cl)c2)CC1 [Example 1.076] — 7-fold lower, 56 nM
- N#Cc1ccc(COC(=O)NC(=N)N)c(F)c1N1C2CCC1CC(c1ccccc1)C2 (stereo not shown) [Example 1.077] — within 1.5-fold, 293 nM
- N#Cc1ccc(COC(=O)NC(=N)N)c(F)c1N1CCN(c2ccc(Cl)cn2)CC1 [Example 1.078] — 56-fold lower, 7 nM
- N#Cc1ccc(COC(=O)NC(=N)N)c(F)c1N1CCC(C2CCN(S(N)(=O)=O)CC2)CC1 [Example 1.079] — 44-fold lower, 9 nM
- CCOc1ccc(C2CCN(c3c(C#N)ccc(COC(=O)NC(=N)N)c3F)CC2)cn1 [Example 1.080] — 20-fold lower, 20 nM
- N#Cc1ccc(COC(=O)NC(=N)N)c(F)c1N1CCN(c2ncccn2)CC1 [Example 1.081] — 8.7-fold lower, 45 nM
- N#Cc1ccc(COC(=O)NC(=N)N)c(F)c1N1CCN(c2ncncn2)CC1 [Example 1.082] — 6.9-fold lower, 57 nM
- N#Cc1ccc(COC(=O)NC(=N)N)c(F)c1N1CCN(c2cccnn2)CC1 [Example 1.083] — 12-fold lower, 34 nM
- N#Cc1ccc(COC(=O)NC(=N)N)c(F)c1N1CCC(c2ccc(C(F)(F)F)cc2)CC1 [Example 1.084] — within 1.5-fold, 502 nM
- N#Cc1ccc(COC(=O)NC(=N)N)c(F)c1N1CCC(O)(c2ccccc2)CC1 [Example 1.085] — within 1.5-fold, 280 nM
- Cc1ccc(N2CCN(c3c(C#N)ccc(COC(=O)NC(=N)N)c3F)CC2)cc1C [Example 1.086] — 2.6-fold lower, 149 nM
- N#Cc1ccc(COC(=O)NC(=N)N)c(F)c1N1CC(c2ccccn2)C1 [Example 1.087] — within 1.5-fold, 470 nM
- N#Cc1ccc(COC(=O)NC(=N)N)c(F)c1N1CCC(N2CCCC2=O)CC1 [Example 1.088] — 2.3-fold higher, 889 nM
- N#Cc1ccc(COC(=O)NC(=N)N)c(F)c1N1CCC(N2CCC(O)CC2)CC1 [Example 1.089] — 7-fold lower, 56 nM
- N#Cc1ccc(COC(=O)NC(=N)N)c(F)c1N1CCC(C#N)(c2ccccc2)CC1 [Example 2.001] — 2.4-fold lower, 166 nM
- N#Cc1ccc(COC(=O)NC(=N)N)c(F)c1N1CCC2(CC1)CC(=O)Nc1ncccc12 [Example 2.002] — 4.2-fold lower, 93 nM
- N#Cc1ccc(COC(=O)NC(=N)N)c(F)c1N1CCN(c2ccncc2)CC1 [Example 2.003] — 56-fold lower, 7 nM
- Cc1cc(N2CCN(c3c(C#N)ccc(COC(=O)NC(=N)N)c3F)CC2)ccn1 [Example 2.004] — 130-fold lower, 3 nM
- Cc1cnc(C2CCN(c3c(C#N)ccc(COC(=O)NC(=N)N)c3F)CC2)o1 [Example 2.005] — 20-fold lower, 20 nM
- N#Cc1ccc(COC(=O)NC(=N)N)c(F)c1N1CCC(c2nnco2)CC1 [Example 2.006] — 12-fold lower, 33 nM

Reference: US10336729B2, “4-cyano-benzyl carbamimidoylcarbamate derivatives and their use as AOC3 inhibitors” (Boehringer Ingelheim International GmbH, priority 2016, dated 2019)
